Source: article PMC5730604
Positions of bridges follow the written chain, without caps; N, C: chain ends. Non-standard residues stand in square brackets, D forms with d. Residues, ends and D or L forms follow the SMILES beside them. Chains are numbered I, II in the order given. *: point of attachment. PEG28 = NCCOCCOCCOCCOCCOCCOCCOCCOCCOCCOCCOCCOCCOCCOCCOCCOCCOCCOCCOCCOCCOCCOCCOCCOCCOCCOCCOCCOCCC(=O)O; Tyr(3-NO2) = N[C@@H](Cc1ccc(O)c([N+](=O)[O-])c1)C(=O)O; Hyp = O=C(O)[C@@H]1C[C@@H](O)CN1; For = O=C*

How the values were obtained:
[1] = molecular target: immobilized integrin α3β1 (VLA-3) (Homo sapiens, UniProt P26006); test: biochemical
Protocol: Single cycle kinetic experiments were conducted on a Biacore 3000 system using a CM5 sensor chip at 25 and 37 °C with a flow rate of 10 µl/min. After coupling of the VLA-3 receptor (R&D Systems) via standard EDC/NHS immobilization chemistry (7 min activation with EDC/NHS followed by a 7 min flush with VLA-3) in 10 mM NaOAc buffer at pH 6 containing 1 mM MnCl2, a […] solution of ethanolamine was injected for 7 min to block all amine reactive sites. Subsequently the analyte was flushed over the chip surface at a flow rate of 10 µl/min in HEPES buffered saline supplemented with 1 mM MnCl2.

HT-29 cells = HT-29 cells (Homo sapiens, UniProt P26006); test: Competition with 200 nM B9-Biotin (flow cytometry); assay type: binding
GPC-16 tumor cells = test: GPC-16 tumor model in guinea pigs; assay type: in vivo, Guinea pig
Protocol: by incubation with a 1:50 dilution of the secondary antibody (biotinylated goat -ant i-r at Ig G, BD Pharmingen, #554014 ). After incubation with horseradish peroxidase (HRP) coupled streptavidin color development was performed using the DAB substrate kit. All immunohistochemical stained tissue sections were counterstained using haemalaun or […]
Assessment of anti-tumor efficacy in the GPC -16 tumor model in guinea pig GPC-16 cells (guinea pig colorectal adenocarcinoma) were acquired from LGC and were cultured in Eagle’s minimum essential medium with 10% FCS and 100 U/ml Penicillin and 100 µg/ml Streptomycin. For each experiment 10 f emale guinea pigs (8- 10 weeks old) per group were immunosuppressed with an intraperitoneal injection of 200 mg/kg cyclophosphamide (CPA) one day bef ore the tumor inoculation and repeated every 7- 10 days for 4 week s. Efficacy of the CPA treatment was verif ied by routine blood analysis bef ore f irst CPA treatment and on a week ly basis thereafter. For the evaluation of the anti-tumor efficacy of the Y9 the 10 animals were divided into two groups of 5 animals. […] The presence of tumors in the sk in sections was evaluated by a board certif ied veterinarian pathologist using a scoring system. […]
T o study whether a repeated subcutaneous dosing of Y9 has any local or systemic toxic effects on animals, the following dose escalation study was performed. […] B ody weig ht and general health observations were evaluated on a daily basis. […] Organs (sk in, brain, heart, k idney, liver, lung, ovaries/testis, spleen, local and distal lymph nodes, mesentery, small intestine, stomach, pancreas) were isolated af ter euthanasia with an isof lurane overdose for histopathology and body weight-normalized organ weights (brain, kidney, heart, liver, spleen) were calculated.
W eights of the carcass, brain, heart, kidney, liver and spleen were determined and body weight-normalized organ weight in % was calculated as follows: […]

Balb/c mice = test: Dose escalation study and acute toxicity; assay type: in vivo, Mouse
Protocol: Dose escalation study and evaluation of acute toxicity in mice
T o study whether a repeated subcutaneous dosing of Y9 has any local or systemic toxic effects on animals, the following dose escalation study was performed. Groups of 5 Balb/c mice were inoculated subcutaneously with 100 µl of 0.9 % saline (NaCl) solution containing either 200 nmol, 400 nmol or 800 nmol Y9 . Two control groups (a total of 10 mice) received only 0.9% saline. T he injections were repeated every other day f or a total of seven injections. B ody weig ht and general health observations were evaluated on a daily basis. At day 4 after the last inoculation of the solutions blood was collected under isof lurane anesthesia f or hematology and f or serum analysis by retro- orbital puncture. Organs (sk in, brain, heart, k idney, liver, lung, ovaries/testis, spleen, local and distal lymph nodes, mesentery, small intestine, stomach, pancreas) were isolated af ter euthanasia with an isof lurane overdose for histopathology and body weight-normalized organ weights (brain, kidney, heart, liver, spleen) were calculated.
W eights of the carcass, brain, heart, kidney, liver and spleen were determined and body weight-normalized organ weight in % was calculated as follows:
Body weight-normalized organ weight [%] = organ weight [g] x 100 […]
The following serum parameters were analyzed with the Vitros 250 (Johnson&Johnson) machine measuring parameters at 25°C: […] (CK), alk aline Phosphatase (ALP), Amylase, GOT/AST, GPT/ALT, GGT, LDH, Lipase, total protein (TP), Glucose (GLU), Cholesterol (CHOL), Triglyceride (TRIG), blood urea nitrogen (BUN), Creatinine (CREA), total bilirubin (TBIL), inorganic Phosphorus (PHOS), Sodium (Na), Potassium (K), Calcium (Ca), […]
(MCHC), banded neutrophils, segmented neutrophils, lymphocytes (Lymphs), monocytes (Monos), eosinophils (EOS), basophils (BASO). The organ sections were histopathological […]
pathological abnormalities f ound. […]
glycerin (f inal concentration 227 µg/ml). […]
on a nitrocellulose membrane. For calibration, control serum was spiked with Y9 in […]
The membrane was washed 3
The membrane was f inally washed 3 times in […]
quantitated using Image J software. The calibration samples were used to prepare a linear […]
values of < 0.05 were considered signif icant.

[2] = mice, local s.c. injection of 200 or 500 nmol, dot-blot, detection limit ~1 nM
Protocol: according to standard procedures. From 20 ml antiserum, 1.5 mg purified antibody were
isolated and stored in aliquots at -20 °C in PBS + 0.01% thimerosal, 0.1% BSA diluted 1:1 with
concentrations between 0.5 nM and 20 nM and s amples were also spotted in triplicates. After
drying, the membrane was soaked in TBST (150 mM NaCl, 50 mM Tris-HCl, pH 7.4, 0.05%
tween), blocked for 1 h at RT with 5% nonfat dry milk in TBST. The membrane was washed 3
1:2000 in TBST, washed 3 times, incubated 1 h at RT with anti-rabbit-HRP (GE Healthcare)
diluted 1:5,000 in 5% nonf at dry milk in TBST. The membrane was f inally washed 3 times in
TBST and then incubated with ECL prime substrate (GE Healthcare). Chemiluminescent
signals were recorded in an LAS-4000 mini Image reader (Fuji). Spot intensities were
For the statistical analysis, mean (M) and standard deviation (SD) were calculated. T he
statistical analysis was p erf ormed with the GraphPad Prism Software, Version 5.0 (Graph Pad,

in vitro = settings: mouse, fresh mouse serum
Protocol: vor t exing the sample was incubated f or 48 h. At specif ic time points, the solution was again
vortexed, a sample (95 µl) was withdra wn and subjected to ultraf iltration (Vivaspin 500, 10 k Da
cutoff; 15 min, 16,000 g). The f iltrate was put on ice while the f ilter remainder was mixed with
an equal volume of ethanol (95%), vortexed and centrifuged (5 min, 16.000 g). W ith the
resulting supernatant, this procedure was repeated. The f inal supernatant was mixed with an
equal volume of f iltrate, shock frozen in liq uid nitr og en and stored at - 80 °C until analysis. RP -
HPLC analysis was performed using an analytical C4- RP column with a gradient of 5-65%
absorption at 214 and 375 nm (specif ic absorption maximum of the nitro-tyrosine building block
The absorption peak observed at the

[3] = Balb/c mice, s.c. 200, 400 or 800 nmol every two days for 14 days
[4] = highest dose 800 nmol (printed 800 nm), repeated s.c., day 4 after last dose

Chain of HT-29 cells (P26006 33-1051): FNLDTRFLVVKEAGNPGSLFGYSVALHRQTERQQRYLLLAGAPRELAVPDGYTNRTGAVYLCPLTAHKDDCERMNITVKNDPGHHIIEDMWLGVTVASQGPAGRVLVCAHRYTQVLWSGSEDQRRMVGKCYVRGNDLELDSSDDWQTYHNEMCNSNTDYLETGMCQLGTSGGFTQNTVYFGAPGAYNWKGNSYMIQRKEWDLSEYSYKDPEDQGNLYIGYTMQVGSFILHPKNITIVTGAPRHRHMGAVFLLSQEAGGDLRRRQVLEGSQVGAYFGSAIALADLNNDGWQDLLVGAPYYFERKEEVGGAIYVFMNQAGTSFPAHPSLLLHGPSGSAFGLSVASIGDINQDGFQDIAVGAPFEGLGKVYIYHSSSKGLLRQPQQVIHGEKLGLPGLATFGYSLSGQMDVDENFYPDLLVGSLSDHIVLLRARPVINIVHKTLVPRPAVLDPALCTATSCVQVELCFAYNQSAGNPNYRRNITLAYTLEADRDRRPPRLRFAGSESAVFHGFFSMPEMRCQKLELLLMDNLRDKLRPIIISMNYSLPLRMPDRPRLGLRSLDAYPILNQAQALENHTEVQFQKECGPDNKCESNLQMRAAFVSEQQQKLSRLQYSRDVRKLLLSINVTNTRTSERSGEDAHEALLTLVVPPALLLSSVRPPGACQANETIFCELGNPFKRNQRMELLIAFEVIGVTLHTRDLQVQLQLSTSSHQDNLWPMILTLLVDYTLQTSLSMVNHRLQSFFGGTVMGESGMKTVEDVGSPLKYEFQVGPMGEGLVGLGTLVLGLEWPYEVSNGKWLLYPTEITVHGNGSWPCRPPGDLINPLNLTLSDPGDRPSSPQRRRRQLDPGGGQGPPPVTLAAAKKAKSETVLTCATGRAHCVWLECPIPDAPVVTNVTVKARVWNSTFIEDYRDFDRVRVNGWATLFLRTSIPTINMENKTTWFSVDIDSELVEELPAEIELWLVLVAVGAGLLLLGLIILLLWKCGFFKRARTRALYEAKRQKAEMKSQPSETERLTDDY
Chain of HT-29 cells (P05556 21-798 partner): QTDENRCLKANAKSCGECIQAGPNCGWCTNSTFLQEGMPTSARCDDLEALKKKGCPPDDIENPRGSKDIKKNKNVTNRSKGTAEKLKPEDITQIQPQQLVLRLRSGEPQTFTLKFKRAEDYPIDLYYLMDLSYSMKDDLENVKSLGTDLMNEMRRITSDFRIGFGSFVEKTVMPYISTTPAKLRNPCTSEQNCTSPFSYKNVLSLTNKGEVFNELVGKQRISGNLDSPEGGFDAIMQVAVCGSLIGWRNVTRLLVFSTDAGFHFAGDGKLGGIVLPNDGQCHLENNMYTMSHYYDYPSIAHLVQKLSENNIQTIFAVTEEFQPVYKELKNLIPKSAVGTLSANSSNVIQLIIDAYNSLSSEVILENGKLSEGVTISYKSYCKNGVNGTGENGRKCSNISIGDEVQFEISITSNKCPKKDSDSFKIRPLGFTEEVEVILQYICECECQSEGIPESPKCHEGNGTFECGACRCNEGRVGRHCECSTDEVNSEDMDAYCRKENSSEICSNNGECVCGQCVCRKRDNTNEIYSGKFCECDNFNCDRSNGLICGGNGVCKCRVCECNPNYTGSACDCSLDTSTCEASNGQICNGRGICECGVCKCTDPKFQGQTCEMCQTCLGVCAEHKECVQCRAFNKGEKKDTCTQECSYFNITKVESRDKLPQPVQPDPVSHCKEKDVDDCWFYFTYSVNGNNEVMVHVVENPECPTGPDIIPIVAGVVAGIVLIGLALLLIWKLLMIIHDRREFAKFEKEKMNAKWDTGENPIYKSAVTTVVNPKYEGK

In the case of `CC[C@H](C)[C@H](NC(=O)[C@H](CCSC)NC=O)C(=O)N[C@@H](Cc1ccccc1)C(=O)N[C@@H](CC(C)C)C(=O)NCC(=O)NCC(=O)N[C@@H](CCCCNC(=O)CCOCCOCCOCCOCCOCCOCCOCCOCCOCCOCCOCCOCCOCCOCCOCCOCCOCCOCCOCCOCCOCCOCCOCCOCCOCCOCCOCCOCCNC(=O)[C@H]1CSSC[C@@H](N)C(=O)N[C@H](CC(=O)O)C(=O)NCC(=O)N[C@@H](Cc2ccc(O)c([N+](=O)[O-])c2)C(=O)NCC(=O)N2C[C@H](O)C[C@H]2C(=O)N[C@@H](CC(N)=O)C(=O)N1)C(=O)N[C@@H](CCCCNC(=O)CCOCCOCCOCCOCCOCCOCCOCCOCCOCCOCCOCCOCCOCCOCCOCCOCCOCCOCCOCCOCCOCCOCCOCCOCCOCCOCCOCCOCCNC(=O)[C@H]1CSSC[C@@H](N)C(=O)N[C@H](CC(=O)O)C(=O)NCC(=O)N[C@@H](Cc2ccc(O)c([N+](=O)[O-])c2)C(=O)NCC(=O)N2C[C@H](O)C[C@H]2C(=O)N[C@@H](CC(N)=O)C(=O)N1)C(=O)O` [Y9] (I: H-[dC][dD]G[Tyr(3-NO2)]G[Hyp]N[dC][PEG28] / II: H-[dC][dD]G[Tyr(3-NO2)]G[Hyp]N[dC][PEG28] / III: For-MIFLGGKK-OH; disulfide I:1-I:8, II:1-II:8; amide I:C-III:7, II:C-III:8), the Kd [1] is reported as 60 nM, the “concentration to displace B9-Biotin relative to the monovalent binder” value (HT-29 cells) is reported as “four-fold lower” and the “animals with tumors present after 35 days” value (GPC-16 tumor cells; single dose 200 nmol mixed with 1.6–2 × 10^7 GPC-16 cells and Matrigel, s.c., CPA-treated Dunkin Hartley guinea pigs, control 8 out of 9) is reported as 3 out of 10. The “reduction of establishment of GPC-16 based tumor” value (GPC-16 tumor cells; single dose treatment during injection of tumor cells, guinea pigs) was 67%, the “undesired effects in guinea pigs” value (GPC-16 tumor cells; single s.c. dose 200 nmol) was “reddening at the injection site” and the “hematological analysis including differential hemogram of white blood cells” value (Balb/c mice; Balb/c mice, repeated s.c. dosing) was “no significant changes”. The relative organ weights (Balb/c mice; Balb/c mice, repeated s.c. dosing, no histopathological abnormalities or steatosis in liver) was “slightly enlarged liver weight”, the “histopathological effects in organs” value (Balb/c mice; Balb/c mice, s.c. 200 nmol every two days for 14 days, liver, kidney, pancreas, spleen, heart, lung, ovaries, brain, stomach, intestine, mesentery) was “No histopathological effects” and the “histopathological effects in organs” value (Balb/c mice; Balb/c mice, s.c. 400 nmol every two days for 14 days, same organs) was “No histopathological effects”. For the same compound, the kidney histopathology (Balb/c mice; Balb/c mice, s.c. 800 nmol every two days for 14 days) was “moderate degenerative changes of the kidney”, the draining lymph nodes (Balb/c mice; [3]) was “mild but significant dose-dependent immune infiltration and lymphoid hyperplasia” and the “local effects at the injection site” value (Balb/c mice; [3]) was “increased neutrophil and monocyte infiltrates at the injection site”. The “amylase level in serum” value (Balb/c mice; [4]) was “significantly increased”, the “blood urea nitrogen (BUN) level in serum” value (Balb/c mice; [4]) was “significantly increased” and the “cholesterol level in serum” value (Balb/c mice; [4]) was “significantly increased”. For the same compound, the “creatinine (CREA) level in serum” value (Balb/c mice; [4]) was “slightly but significant increased”, the “lipase level in serum” value (Balb/c mice; [4]) was “slightly but significant increased” and the “triglycerides level in serum” value (Balb/c mice; [4]) was “significantly increased”. For the same compound, the “detection of binder peptide in serum after 24 h” value [2] was “still detected” and the metabolised at 48 h, 60 µM (in vitro) was 20%.
